Measurements as given in patent US20160106439A1, “PNEUMATIC TOURNIQUET” (BIONUMERIK PHARMACEUTICALS, INC., priority 2013, published 2016).
Like-named read-outs stand apart in the source and are kept apart here.

Columns and labels:
ErbB-1 = ErbB-1 (Homo sapiens, UniProt P00533); conditions: ability to activate the receptor; cited from earlier work
ErbB-2 = ErbB-2 (Homo sapiens, UniProt P04626); parameters: key: the “+” and “−” symbols signify the ability and inability to activate each of the ErbB receptors, respectively; the “+” and “−” symbols signify the ability and inability to activate each of the ErbB receptors, respectively; conditions: ability to activate the receptor; cited from earlier work
ErbB-4 = ErbB-4 (Homo sapiens, UniProt Q15303); parameters: key: the “+” and “−” symbols signify the ability and inability to activate each of the ErbB receptors, respectively; the “+” and “−” symbols signify the ability and inability to activate each of the ErbB receptors, respectively; conditions: ability to activate the receptor; cited from earlier work
ErbB-3 = ErbB-3 (Homo sapiens, UniProt P21860); parameters: key: the “+” and “−” symbols signify the ability and inability to activate each of the ErbB receptors, respectively; the “+” and “−” symbols signify the ability and inability to activate each of the ErbB receptors, respectively; conditions: ability to activate the receptor; cited from earlier work
[1] = molecular target: T1, glutathione reductase (GR) (Homo sapiens, UniProt P00390); conditions: cited from earlier work
T1 sequence (P00390 44-522): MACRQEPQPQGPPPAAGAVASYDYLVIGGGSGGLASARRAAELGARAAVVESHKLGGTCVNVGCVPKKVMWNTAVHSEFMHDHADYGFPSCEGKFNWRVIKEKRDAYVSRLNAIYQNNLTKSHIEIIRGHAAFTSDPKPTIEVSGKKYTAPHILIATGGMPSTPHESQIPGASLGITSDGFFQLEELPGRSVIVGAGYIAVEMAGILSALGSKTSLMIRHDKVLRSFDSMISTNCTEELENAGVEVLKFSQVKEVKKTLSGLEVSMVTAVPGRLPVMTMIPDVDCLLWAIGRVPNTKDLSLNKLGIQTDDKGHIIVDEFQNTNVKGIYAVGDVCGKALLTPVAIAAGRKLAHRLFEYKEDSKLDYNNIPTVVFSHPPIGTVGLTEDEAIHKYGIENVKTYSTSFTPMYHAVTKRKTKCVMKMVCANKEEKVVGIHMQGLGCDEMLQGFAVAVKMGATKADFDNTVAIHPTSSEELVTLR

[2] = molecular target: T2, mammalian thioredoxin reductase (TrxR) (Homo sapiens, UniProt Q16881); conditions: cited from earlier work
T2 sequence (Q16881 1-499 isoform Q16881-5): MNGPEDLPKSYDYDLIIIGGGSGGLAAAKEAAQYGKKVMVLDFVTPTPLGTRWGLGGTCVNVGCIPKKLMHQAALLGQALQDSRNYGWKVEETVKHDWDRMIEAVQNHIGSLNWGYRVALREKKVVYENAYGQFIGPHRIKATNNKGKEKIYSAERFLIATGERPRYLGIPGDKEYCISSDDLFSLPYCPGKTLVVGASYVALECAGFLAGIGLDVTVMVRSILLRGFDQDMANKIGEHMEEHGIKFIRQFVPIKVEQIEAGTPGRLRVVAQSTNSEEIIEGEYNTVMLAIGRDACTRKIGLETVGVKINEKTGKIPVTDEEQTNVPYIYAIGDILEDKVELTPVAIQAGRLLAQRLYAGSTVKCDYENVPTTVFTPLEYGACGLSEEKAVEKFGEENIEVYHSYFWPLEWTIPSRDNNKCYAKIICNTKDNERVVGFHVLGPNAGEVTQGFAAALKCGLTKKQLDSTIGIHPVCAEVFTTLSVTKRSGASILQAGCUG

T790M EGFR kinase = T790M EGFR kinase (Homo sapiens, UniProt P00533, T790M); test: T790M EGFR kinase assay (ADP-glo); type: biochemical; conditions: for IC50: read-out: IC50 on T790M EGFR kinase activity; for potentiation of Erlotinib inhibition of T790M EGFR kinase activity: 10 μM and 100 μM ATP
WT EGFR kinase = WT EGFR kinase (Homo sapiens, UniProt P00533); test: WT EGFR kinase assay (ADP-glo); conditions: for potentiation of Erlotinib inhibition of WT EGFR kinase activity: 10 μM and 100 μM ATP
Recombinant human Trx = molecular target: T3, Recombinant human Trx (Homo sapiens, UniProt P10599); test: LC MS of Trypsin digested Trx after incubation with Tavocept, mesna or glutathione; type: binding; parameters: purchased Sigma (SigmaAldrich); host or cells: E. coli; conditions: control reactions with glutathione
T3 sequence (P10599 1-105): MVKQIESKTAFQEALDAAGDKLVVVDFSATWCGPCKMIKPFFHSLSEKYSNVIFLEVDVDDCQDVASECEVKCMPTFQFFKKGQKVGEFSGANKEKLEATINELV

[3] = system: bovine brain microtubule protein (α-/β-tubulin); test: Microtubule protein polymerization assay (OD350) and electron microscopy; type: biochemical; conditions: monoaquocisplatin 36 μM
[4] = read-out: IC50 on WT EGFR kinase activity, 10 μM ATP
[5] = read-out: IC50 on WT EGFR kinase activity, 100 μM ATP
[6] = read-out: IC50 on WT EGFR kinase activity, 250 μM ATP, conducted only once
[7] = IC50 on WT EGFR kinase activity, 10 μM ATP
[8] = IC50 on WT EGFR kinase activity, 100 μM ATP
[9] = IC50 on WT EGFR kinase activity, 250 μM ATP, conducted only once

Chain of ErbB-4 (Q15303 26-1308, species assumed): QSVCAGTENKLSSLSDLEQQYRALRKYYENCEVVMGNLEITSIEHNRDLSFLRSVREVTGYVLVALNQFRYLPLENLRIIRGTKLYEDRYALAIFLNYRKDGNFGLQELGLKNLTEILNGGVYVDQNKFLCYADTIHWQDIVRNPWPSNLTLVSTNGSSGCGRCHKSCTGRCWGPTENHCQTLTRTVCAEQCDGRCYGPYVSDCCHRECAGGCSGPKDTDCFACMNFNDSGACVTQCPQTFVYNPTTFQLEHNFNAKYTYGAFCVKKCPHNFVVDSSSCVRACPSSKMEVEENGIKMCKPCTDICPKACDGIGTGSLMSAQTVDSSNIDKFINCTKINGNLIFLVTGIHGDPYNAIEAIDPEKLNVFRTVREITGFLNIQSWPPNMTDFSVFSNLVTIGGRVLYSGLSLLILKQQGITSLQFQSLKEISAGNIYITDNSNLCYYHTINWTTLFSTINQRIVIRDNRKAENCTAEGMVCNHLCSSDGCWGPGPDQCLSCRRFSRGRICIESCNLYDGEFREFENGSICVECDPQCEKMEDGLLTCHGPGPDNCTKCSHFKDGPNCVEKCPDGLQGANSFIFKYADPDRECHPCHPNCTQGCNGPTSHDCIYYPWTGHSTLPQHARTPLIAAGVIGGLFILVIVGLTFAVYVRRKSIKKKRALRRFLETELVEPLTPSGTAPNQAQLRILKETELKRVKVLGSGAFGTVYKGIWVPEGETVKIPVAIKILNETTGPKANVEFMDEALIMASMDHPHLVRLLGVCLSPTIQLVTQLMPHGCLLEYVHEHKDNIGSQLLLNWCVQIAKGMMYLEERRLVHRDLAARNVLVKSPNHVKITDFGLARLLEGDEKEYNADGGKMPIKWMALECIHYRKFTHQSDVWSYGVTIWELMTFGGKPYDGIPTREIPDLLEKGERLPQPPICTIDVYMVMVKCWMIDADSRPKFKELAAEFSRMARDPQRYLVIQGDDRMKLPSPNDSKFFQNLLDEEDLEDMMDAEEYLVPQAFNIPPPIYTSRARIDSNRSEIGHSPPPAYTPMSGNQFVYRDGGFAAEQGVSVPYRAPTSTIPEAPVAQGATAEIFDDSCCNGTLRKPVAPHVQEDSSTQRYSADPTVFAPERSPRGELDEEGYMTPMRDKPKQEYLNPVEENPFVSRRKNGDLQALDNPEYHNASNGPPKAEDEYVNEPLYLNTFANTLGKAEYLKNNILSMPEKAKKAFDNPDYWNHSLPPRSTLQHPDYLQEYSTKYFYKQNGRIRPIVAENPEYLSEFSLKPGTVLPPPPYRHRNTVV

Molecule: neuregulin 1
- ErbB-1 (ErbB-1): −
- ErbB-2 (ErbB-2): −
- ErbB-4 (ErbB-4): +
- ErbB-3 (ErbB-3): +

Molecule: N.N.O=C([O-])C1(C(=O)[O-])CCC1.[Pt+2] [carboplatin]
- Inhibition of GR [1]: could not inhibit
- Inhibition of TrxR [2]: could not inhibit

Molecule: COc1cccc2c1C(=O)c1c(O)c3c(c(O)c1C2=O)C[C@@](O)(C(C)=O)C[C@@H]3O[C@H]1C[C@H](N)[C@H](O)[C@H](C)O1 [daunorubicin]
- Inhibition of TrxR [2]: not inhibitors

Molecule: O=P1(NCCCl)OCCCN1CCCl (stereo not shown) [ifosfamide]
- Inhibition of TrxR [2]: inhibited

Molecule: NC(CCC(=O)NC(CSSCCS(=O)(=O)O)C(=O)NCC(=O)O)C(=O)O (stereo not shown) [mesna-glutathione]
- IC50 (T790M EGFR kinase; 10 μM ATP): 1280 ± 290 µM
- potentiation of Erlotinib inhibition of T790M EGFR kinase activity (T790M EGFR kinase): effectively potentiated
- IC50 (T790M EGFR kinase; 100 μM ATP): 1170 ± 10 µM
- potentiation of Erlotinib inhibition of WT EGFR kinase activity (WT EGFR kinase): effectively potentiated
- IC50 (WT EGFR kinase; [4]): 724 ± 220 µM
- IC50 (WT EGFR kinase; [5]): 820 ± 240 µM
- IC50 (WT EGFR kinase; [6]): 1570 µM

Molecule: CC1=C(/C=C/C(C)=C/C=C/C(C)=C\C(=O)O)C(C)(C)CCC1 [13-cis-retinoic acid]
- Inhibition of TrxR [2]: irreversible inhibition

Molecule: NC(CSSCCS(=O)(=O)O)C(=O)NC(CCC(=O)O)C(=O)O (stereo not shown) [mesna-cysteinylglutamate]
- IC50 (T790M EGFR kinase; 10 μM ATP): 1090 ± 190 µM
- potentiation of Erlotinib inhibition of T790M EGFR kinase activity (T790M EGFR kinase): effectively potentiated
- IC50 (T790M EGFR kinase; 100 μM ATP): 1050 ± 80 µM
- potentiation of Erlotinib inhibition of WT EGFR kinase activity (WT EGFR kinase): effectively potentiated
- IC50 (WT EGFR kinase; [4]): 714 ± 120 µM
- IC50 (WT EGFR kinase; [5]): 815 ± 20 µM
- IC50 (WT EGFR kinase; [6]): 690 µM

Molecule: amphiregulin: growth factor ligand of ErbB receptors
- ErbB-1 (ErbB-1): +
- ErbB-2 (ErbB-2): −
- ErbB-4 (ErbB-4): −
- ErbB-3 (ErbB-3): −

Molecule: TGF-α: growth factor ligand of ErbB receptors
- ErbB-2 (ErbB-2): −
- ErbB-4 (ErbB-4): −
- ErbB-3 (ErbB-3): −

Molecule: CS(=O)(=O)OCCCCOS(C)(=O)=O [busulfan]
- Inhibition of GR [1]: not GR
- Inhibition of TrxR [2]: irreversibly inhibited

Molecule: NC(CSSCCS(=O)(=O)O)C(=O)NCC(=O)O (stereo not shown) [mesna-cysteinylglycine]
- IC50 (T790M EGFR kinase; 10 μM ATP): 510 ± 10 µM
- potentiation of Erlotinib inhibition of T790M EGFR kinase activity (T790M EGFR kinase): effectively potentiated
- IC50 (T790M EGFR kinase; 100 μM ATP): 410 ± 50 µM
- potentiation of Erlotinib inhibition of WT EGFR kinase activity (WT EGFR kinase): effectively potentiated
- IC50 (WT EGFR kinase; [7]): 445 ± 80 µM
- IC50 (WT EGFR kinase; [8]): 370 ± 121 µM
- IC50 (WT EGFR kinase; [9]): 320 µM

Molecule: N[C@@H](CCC(=O)N[C@@H](CS)C(=O)NCC(=O)O)C(=O)O [glutathione, γ-glutamyl-cysteinyl-glycine, reference compound]
- Glutathione adduct on Trx (Recombinant human Trx): glutathionylated at cysteine-73 (Cys73)

Molecule: N.N.O.[Cl][Pt+] [monoaquocisplatin, reference compound]
- effect of extended exposure on microtubule protein polymerization [3]: notable and reproducible loss

Molecule: NC(CSSCCS(=O)(=O)O)C(=O)O (stereo not shown) [mesna-cysteine]
- IC50 (T790M EGFR kinase; 10 μM ATP): 3760 ± 260 µM
- potentiation of Erlotinib inhibition of T790M EGFR kinase activity (T790M EGFR kinase): effectively potentiated
- IC50 (T790M EGFR kinase; 100 μM ATP): 3030 ± 280 µM
- potentiation of Erlotinib inhibition of WT EGFR kinase activity (WT EGFR kinase): effectively potentiated
- IC50 (WT EGFR kinase; [7]): 2750 ± 800 µM
- IC50 (WT EGFR kinase; [8]): 2650 ± 110 µM
- IC50 (WT EGFR kinase; [9]): 2870 µM

Molecule: HB-EGF: growth factor ligand of ErbB receptors
- ErbB-1 (ErbB-1): +
- ErbB-2 (ErbB-2): −
- ErbB-4 (ErbB-4): +
- ErbB-3 (ErbB-3): −

Molecule: O=C1[O][Pt]2([NH][C@@H]3CCCC[C@H]3[NH]2)[O]C1=O [oxaliplatin]
- Inhibition of GR [1]: not GR
- Inhibition of TrxR [2]: irreversibly inhibited

Molecule: epiregulin: growth factor ligand of ErbB receptors
- ErbB-1 (ErbB-1): +
- ErbB-2 (ErbB-2): −
- ErbB-4 (ErbB-4): +
- ErbB-3 (ErbB-3): −

Molecule: EGF: growth factor ligand of ErbB receptors
- ErbB-2 (ErbB-2): −
- ErbB-4 (ErbB-4): −
- ErbB-3 (ErbB-3): −

Molecule: betacellulin: growth factor ligand of ErbB receptors
- ErbB-1 (ErbB-1): +
- ErbB-2 (ErbB-2): −
- ErbB-4 (ErbB-4): +
- ErbB-3 (ErbB-3): −

Molecule: COc1cccc2c1C(=O)c1c(O)c3c(c(O)c1C2=O)C[C@@](O)(C(=O)CO)C[C@@H]3O[C@H]1C[C@H](N)[C@H](O)[C@H](C)O1 [doxorubicin]
- Inhibition of TrxR [2]: not inhibitors

Molecule: O=NN(CCCl)C(=O)NCCCl [carmustine]
- Inhibition of GR [1]: can inhibit
- Inhibition of TrxR [2]: can inhibit

Molecule: O=C(O)CCCc1ccc(N(CCCl)CCCl)cc1 [chlorambucil]
- Inhibition of GR [1]: not GR
- Inhibition of TrxR [2]: irreversibly inhibited

Molecule: N[C@@H](Cc1ccc(N(CCCl)CCCl)cc1)C(=O)O [melphalan]
- Inhibition of GR [1]: not GR
- Inhibition of TrxR [2]: irreversibly inhibited

Molecule: N.N.[Cl][Pt][Cl] [cisplatin]
- Inhibition of GR [1]: not GR
- Inhibition of TrxR [2]: irreversibly inhibited

Molecule: N.N.[Cl][Pt+2][Cl] [transplatin]
- Inhibition of GR [1]: not GR
- Inhibition of TrxR [2]: irreversibly inhibited

Molecule: O=P1(N(CCCl)CCCl)NCCCO1 (stereo not shown) [cyclophosphamide]
- Inhibition of GR [1]: not GR
- Inhibition of TrxR [2]: irreversibly inhibited

B1: epigen: growth factor ligand of ErbB receptors (protein, UniProt Q6UW88 23-154, looked up)
Epigen: AAVTVTPPITAQQGNWTVNKTEADNIEGPIALKFSHLCLEDHNSYCINGACAFHHELEKAICRCFTGYTGERCEHLTLTSYAVDSYEKYIAIGIGVGLLLSGFLVIFYCYIRKRCLKLKSPYNVCSGERRPL
- ErbB-1 (ErbB-1): +
- ErbB-2 (ErbB-2): −
- ErbB-4 (ErbB-4): −
- ErbB-3 (ErbB-3): −
